Source: ChEMBL document CHEMBL2029230, “Identification, design and biological evaluation of heterocyclic quinolones targeting Plasmodium falciparum type II NADH:quinone oxidoreductase (PfNDH2)” (J Med Chem, 2012)

How the values were obtained:
Plasmodium falciparum [1] = assay: Antimalarial activity against blood stage forms of Plasmodium falciparum 3D7 infected in human erythrocytes; format: functional, organism-based
[2] = Inhibition of Plasmodium falciparum recombinant NDH2 expressed in Escherichia coli F571 using decyclubiquinone as substrate at 1 min by spectrophotometry
Plasmodium falciparum [3] = assay: Antimalarial activity against […]-resistant Plasmodium falciparum TM90C2B containing cytochrome-b Y268S mutant; format: functional, organism-based
Plasmodium falciparum [4] = assay: Antimalarial activity against chloroquine-resistant Plasmodium falciparum W2; format: functional, organism-based
[5] = Cmax in rat at 20 mg/kg, po; format: ADME, organism-based; parameters: dose 20 mg/kg, route oral; details: in vivo
[6] = Total clearance in rat at 20 mg/kg, po; format: ADME, organism-based; parameters: dose 20 mg/kg, route oral; details: in vivo
Plasmodium berghei [7] = assay: Antimalarial activity against Plasmodium berghei NS infected in CD1 mouse assessed as decrease in parasitemia at 20 mg/kg, po administered using SSV as vehicle measured on day 4; format: functional; parameters: scale not given: the % may be the effect or the level left
[8] = Tmax in rat at 20 mg/kg, po; format: ADME, organism-based; parameters: dose 20 mg/kg, route oral; details: in vivo
[9] = Half life in rat at 20 mg/kg, po; format: ADME, organism-based; parameters: dose 20 mg/kg, route oral; details: in vivo
Rattus norvegicus = assay: Volume of distribution in rat at 20 mg/kg, po; format: ADME, organism-based; parameters: dose 20 mg/kg, route oral; details: in vivo
[10] = AUC (0 to t) in rat at 20 mg/kg, po; format: ADME, organism-based; parameters: dose 20 mg/kg, route oral; details: plasma
Plasmodium berghei [11] = assay: Antimalarial activity against Plasmodium berghei NS infected in po dosed CD1 mouse assessed as decrease in parasitemia measured on day 4; format: functional; details: 96 h
Plasmodium berghei [12] = assay: Antimalarial activity against Plasmodium berghei NS infected in CD1 mouse assessed as decrease in parasitemia at 20 mg/kg, po administered using DET as vehicle measured on day 4; format: functional; parameters: scale not given: the % may be the effect or the level left
[13] = Inhibition of Plasmodium falciparum cytochrome b-c1 complex using decylubiquinol as substrate by spectrophotometry

| SMILES | IC50 (Plasmodium falciparum [1]) | other results |
| --- | --- | --- |
| Cc1c(-c2ccc(-c3ccc(O)cc3)nc2)[nH]c2ccccc2c1=O | > 1000 nM |  |
| Cc1c(-c2ccc(OCCN3CCCC3)cc2)[nH]c2ccccc2c1=O | > 1000 nM |  |
| Cc1c(-c2ccc(-c3ccccc3C(F)(F)F)nc2)[nH]c2ccccc2c1=O | 109 nM | IC50 [2]: 352 nM; IC50 (Plasmodium falciparum [3]): 381 nM; IC50 (Plasmodium falciparum [4]): 88 nM |
| O=c1c(CO)c(-c2ccc(-c3ccc(OC(F)(F)F)cc3)cc2)[nH]c2ccccc12 | 162 nM | IC50 [2]: 69 nM; IC50 (Plasmodium falciparum [3]): 361 nM |
| Cc1c(-c2ccc(OC3CCOCC3)cc2)[nH]c2ccccc2c1=O | > 1000 nM |  |
| Cc1c(-c2ccc(-c3ccccc3C(F)(F)F)cc2)[nH]c2ccccc2c1=O | 96 nM | IC50 [2]: 8.1 nM |
| Cc1c(-c2ccc(CN3CCOCC3)cc2)[nH]c2cc(Cl)ccc2c1=O | > 1000 nM |  |
| Cc1c(-c2ccc(-c3ccccc3F)nc2)[nH]c2ccccc2c1=O | 151 nM | IC50 [2]: 131 nM; IC50 (Plasmodium falciparum [3]): 324 nM; IC50 (Plasmodium falciparum [4]): 120 nM |
| Cc1c(-c2ccc(-c3ccc(CN4CCOCC4)cc3)cc2)[nH]c2ccccc2c1=O | 496 nM |  |
| Cc1c(-c2ccc(-c3ccc(OCCN4CCCCC4)cc3)nc2)[nH]c2ccccc2c1=O | 600 nM |  |
| Cc1c(-c2ccc(Cc3ccc(C(F)(F)F)nc3)cc2F)[nH]c2ccccc2c1=O | 136 nM | IC50 (Plasmodium falciparum [4]): 67 nM |
| Cc1c(-c2ccc(-c3ccc(OC(F)(F)F)cc3)nc2)nc2ccccc2c1OC(=O)N1CCOCC1 |  | Cmax [5]: 8100 ng/mL; CL/F [6]: 1.63 mL/min/kg; Activity (Plasmodium berghei [7]): 100%; Tmax [8]: 7 h; half-life [9]: 20.3 h; Vd (Rattus norvegicus): 2.8756 L/kg; AUC(0-t) [10]: 167 µg·h/mL |
| Cc1c(-c2ccc(OCCN3CCOCC3)cc2)[nH]c2ccccc2c1=O | > 1000 nM |  |
| Cc1c(-c2ccc(-c3cccc(OCCN4CCOCC4)c3)nc2)[nH]c2ccccc2c1=O | > 1000 nM |  |
| Cc1c(-c2ccc(-c3ccc(OC(F)(F)F)cc3)nc2)[nH]c2cc(F)cc(F)c2c1=O | 286 nM | IC50 [2]: 2.6 nM |
| COc1c(-c2ccc(-c3ccc(OC(F)(F)F)cc3)nc2)[nH]c2ccccc2c1=O | 93 nM |  |
| Cc1c(-c2ccc(OCCn3ccnc3)cc2)[nH]c2ccccc2c1=O | > 1000 nM |  |
| Cc1c(-c2ccc(-c3cccc(OCCN4CCCCC4)c3)nc2)[nH]c2ccccc2c1=O | > 1000 nM |  |
| CCOC(=O)c1c(-c2ccc(-c3ccc(OC(F)(F)F)cc3)cc2)[nH]c2ccccc2c1=O | 347 nM |  |
| Cc1c(-c2ccc(-c3ccc(OC(F)(F)F)cc3)nc2)[nH]c2cc(F)c(F)cc2c1=O | 344 nM |  |
| CCOC(=O)c1c(-c2ccc(-c3ccc(OC(F)(F)F)cc3)nc2)[nH]c2ccccc2c1=O | 987 nM |  |
| Cc1c(-c2ccc(-c3ccc(C(F)(F)F)nc3)nc2)[nH]c2ccccc2c1=O | 370 nM | IC50 (Plasmodium falciparum [4]): 329 nM |

| SMILES | IC50 (Plasmodium falciparum [1]) | other results |
| --- | --- | --- |
| O=C1C(O)=C([C@H]2CC[C@H](c3ccc(Cl)cc3)CC2)C(=O)c2ccccc21 [ATOVAQUONE] |  | IC50 (Plasmodium falciparum [3]): 12000 nM; ED50 (Plasmodium berghei [11]): 0.07 mg/kg; ED90 (Plasmodium berghei [11]): 0.11 mg/kg; Activity (Plasmodium berghei [7]): 100%; Activity (Plasmodium berghei [12]): 100% |
| Cc1c(-c2ccc(CN3CCN(Cc4ccc(OC(F)(F)F)cc4)CC3)nc2)[nH]c2ccccc2c1=O | 679 nM |  |
| CO[C@H]1O[C@@H]2O[C@@]3(C)CC[C@H]4[C@H](C)CC[C@@H]([C@H]1C)[C@@]24OO3 |  | ED50 (Plasmodium berghei [11]): 3.1 mg/kg; ED90 (Plasmodium berghei [11]): 5.8 mg/kg |
| Cc1c(-c2ccc(-c3ccc(OC(F)(F)F)cc3)nc2)[nH]c2cc(F)ccc2c1=O | 75 nM | IC50 [2]: 4.2 nM; IC50 (Plasmodium falciparum [4]): 70 nM; IC50 [13]: 26.8 nM |
| Cc1c(-c2ccc(OCCN3CCCCC3)cc2)[nH]c2ccccc2c1=O | > 1000 nM |  |
| Cc1c(-c2ccc(-c3ccc(CN4CCOCC4)cc3)nc2)[nH]c2ccccc2c1=O | > 1000 nM |  |
| Cc1c(-c2ccc(OCCN3CCOCC3)cc2)[nH]c2ccc(Cl)cc2c1=O | > 1000 nM |  |
| Cc1c(-c2ccc(-c3ccc(C(F)(F)F)cc3)nc2)[nH]c2ccccc2c1=O | 102 nM | IC50 [2]: 13.9 nM; IC50 (Plasmodium falciparum [3]): 314 nM |
| Cc1c(-c2ccc(-c3ccc(OC(F)(F)F)cc3)nc2)[nH]c2ccc(C(F)(F)F)cc2c1=O | > 1000 nM |  |
| CCN(CC)CCCC(C)Nc1ccnc2cc(Cl)ccc12 (configuration not stated) [CHLOROQUINE] |  | ED50 (Plasmodium berghei [11]): 3.3 mg/kg; ED90 (Plasmodium berghei [11]): 4.6 mg/kg |
| Cc1c(-c2ccc(OC3CCC(F)(F)CC3)cc2)[nH]c2ccccc2c1=O | 319 nM |  |
| COc1cccc2[nH]c(-c3ccc(-c4ccc(OC(F)(F)F)cc4)nc3)c(C)c(=O)c12 | > 1000 nM |  |
| Cc1c(-c2ccc(OCCN3CCOCC3)cc2)[nH]c2cc(Cl)ccc2c1=O | > 1000 nM |  |
| COc1cccc(-c2ccc(-c3[nH]c4ccccc4c(=O)c3C)cn2)c1 | 556 nM |  |
| COc1ccc2[nH]c(-c3ccc(-c4ccc(OC(F)(F)F)cc4)nc3)c(C)c(=O)c2c1 | > 1000 nM |  |
| Cc1c(-c2ccc(-c3ccc(OC(F)(F)F)cc3)nc2)[nH]c2cc(O)ccc2c1=O | 202 nM |  |
| Cc1c(-c2ccc(-c3ccc(OC(F)(F)F)cc3)nc2)[nH]c2cc(F)c(Cl)cc2c1=O | 390 nM |  |
| COc1cccc2c(=O)c(C)c(-c3ccc(-c4ccc(OC(F)(F)F)cc4)nc3)[nH]c12 | > 1000 nM |  |
| Cc1c(-c2ccc(-c3ccc(OC(F)(F)F)cc3)nc2)[nH]c2cc(Cl)ccc2c1=O | 373 nM |  |
| Cc1c(-c2ccc(-c3ccc(OC(F)(F)F)cc3)nc2)[nH]c2cc(S(C)(=O)=O)ccc2c1=O | > 1000 nM |  |
| Cc1c(-c2ccc(-c3ccc(OC(F)(F)F)cc3)nc2)[nH]c2ccc(OC(F)(F)F)cc2c1=O | > 1000 nM |  |
| Cc1c(-c2ccc(CN3CCOCC3)cc2)[nH]c2ccccc2c1=O | 32 nM | IC50 (Plasmodium falciparum [4]): 3070 nM |

| SMILES | IC50 (Plasmodium falciparum [1]) | other results |
| --- | --- | --- |
| CCOC(=O)c1c(-c2ccc(-c3ccc(Cl)cc3)cc2)[nH]c2ccccc2c1=O | 220 nM | IC50 (Plasmodium falciparum [3]): 1150 nM |
| Cc1c(-c2ccc(OCCN3CCN(C)CC3)cc2)[nH]c2ccccc2c1=O | > 1000 nM |  |
| Cc1c(-c2ccc(-c3ccc(OC(F)(F)F)cc3)nc2)[nH]c2cc(C(F)(F)F)ccc2c1=O | > 1000 nM |  |
| Cc1c(-c2ccc(-c3ccc(OC(F)(F)F)cc3)nc2)[nH]c2ccccc2c1=O.O=P(O)(O)O |  | ED50 (Plasmodium berghei [11]): 1.87 mg/kg; ED90 (Plasmodium berghei [11]): 4.72 mg/kg |
| Cc1c(-c2c(F)cc(-c3ccc(OC(F)(F)F)cc3)cc2F)[nH]c2ccccc2c1=O | 940 nM |  |
| Cc1c(-c2ccc(-c3cnn(CCN4CCCCC4)c3)cc2)[nH]c2ccccc2c1=O | > 1000 nM |  |
| Cc1c(-c2ccc(-c3ccccc3F)cc2)[nH]c2ccccc2c1=O | 471 nM |  |
| Cc1c(-c2ccc(-c3ccc(F)cc3F)nc2)[nH]c2ccccc2c1=O | 219 nM | IC50 [2]: 88.6 nM |
| Cc1c(-c2ccc(-c3cccc(O)c3)nc2)[nH]c2ccccc2c1=O | > 1000 nM |  |
| Cc1c(-c2ccc(-c3ccc(OC(F)(F)F)cc3)nc2)[nH]c2c(O)cccc2c1=O | > 1000 nM |  |
| Cc1c(-c2ccc(-c3ccc(OC(F)(F)F)cc3)nc2)[nH]c2ccc(Cl)cc2c1=O | 298 nM | IC50 (Plasmodium falciparum [3]): 410 nM |
| Cc1c(-c2ccc(OC3CCOCC3)cc2)[nH]c2ncccc2c1=O | > 1000 nM |  |
| Cc1c(-c2ccc(-c3ccc(OC(F)(F)F)cc3)nc2)[nH]c2ccc(O)cc2c1=O | 280 nM |  |
| Cc1c(-c2ccc(-c3ccc(OCCN4CCOCC4)cc3)nc2)[nH]c2ccccc2c1=O | > 1000 nM |  |
| Cc1c(-c2ccc(-c3ccc(F)cc3F)cc2)[nH]c2ccccc2c1=O | 213 nM |  |
| Cc1c(-c2ccc(Oc3ccc(OC(F)(F)F)cc3)nc2)[nH]c2ccccc2c1=O | 40 nM | IC50 [2]: 110 nM; IC50 (Plasmodium falciparum [4]): 50 nM |
| Cc1c(-c2ccc(-c3ccc(OC(F)(F)F)cc3)nc2)[nH]c2cc(Cl)c(F)cc2c1=O | 390 nM |  |
| O=c1c(CO)c(-c2ccc(-c3ccc(OC(F)(F)F)cc3)nc2)[nH]c2ccccc12 | 103 nM | IC50 [2]: 407 nM |
| Cc1c(-c2ccc(Oc3ccc(F)cc3)nc2)[nH]c2ccccc2c1=O | 279 nM | IC50 [2]: 588 nM |
| Cc1c(-c2ccc(-c3cnn(CCN4CCOCC4)c3)cc2)[nH]c2ccccc2c1=O | > 1000 nM |  |
